# PubChem BioAssay AID1963841 (Molecular Pharmacology Branch, DTP, NCI, 2024)
# Several values for one entry are separate records, joined by “and”; a condition that tells them apart may be missing. Equal entries are not always repeated.
# System: 439559-082-T-J2-PDC spheroid viability
# Assay: Anticancer human tumor 439559-082-T-J2-PDC patient-derived colon adenocarcinoma cell line growth inhibition [POLQ]
# Conditions: spheroids with HUVEC and MSC; for viability, T/C: stronger effect = lower value
# Description: Multicellular complex tumor spheroid response to Polymerase (POL) inhibitors (novobiocin, ART-558, RP6685) in combination with a variety of drugs and investigational agents in selected tumor cell lines
# The POL inhibitors (novobiocin, ART-558, and RP6685) were evaluated both individually and in combination with standard of care and investigational anticancer small molecules within a complex spheroid model of solid tumors. . Complex spheroids include a stromal component modeled by human endothelial cells (HUVEC) and fibroblasts modeled by human mesenchymal stem cells (MSCs). The concentration ranges selected for each drug and investigational agent were based upon clinically achievable concentrations if the clinical Cmax of the agent was known.
# Compounds. The drugs and investigational agents: novobiocin (NSC847541), ART-558 (NSC835418), RP-6685 (NSC848927), peposertib (NSC802822), ceralasertib (NSC780249), elimusertib (NSC800525), camonsertib (NSC841442), AZD-1390 (NSC803789), olaparib (NSC753686), talazoparib (NSC767125), rucaparib (NSC756644), sotorasib (NSC818433), MRTX-1133 (NSC836407), SN-38 (NSC673596), topotecan (NSC609699), epotoside (NSC141540), doxorubicin (NSC123127), gemcitabine (NSC613327), 5-fluorouracil (NSC19893), paclitaxel (NSC125973), vemurafenib (NSC761431), MSA-2 (NSC828583), SN-011 (NSC837082), adavosertib (NSC754352), prexasertib (NSC758257), carboplatin (NSC241240) and oxaliplatin (NSC266046), were obtained from the National Cancer Institute (NCI) Developmental Therapeutics Program Chemical Repository (21). The FDA-approved anticancer drug set is available from the Developmental Therapeutics Program at https://dtp.cancer.gov/organization/dscb/obtaining/. […] The stock solutions were prepared in dimethyl sulfoxide (DMSO, Sigma-Aldrich, St. Louis, MO, cat. D2650), except for the platinum compounds which were prepared in saline (Quality Biological, Gaithersburg, MD, cat. 114-055-101), at 800-fold the tested concentration and stored at -70 degrees C prior to their use. All drugs and investigational agents were tested over a range starting from a high concentration at or near the clinical Cmax and decreasing in half-log increments. If the clinical Cmax for an agent had not been determined, the highest concentration tested was 10 microM, except for SN-38, which was tested at a high concentration of 1 microM.
# Cell Culture. All cells were maintained in an incubator at 37 degrees C and 5% CO2 with 95% humidity. The PDC lines were cultured according to standard operating procedures established by the NCI PDMR (https://pdmr.cancer.gov). Table 3 of the manuscript, lists the cell lines along with the number of the three cell types plated to form the mct-spheroids and media for tumor cell growth. After thawing, all PDC lines, except 997537-175-T-J1-PDC and 415267-285-R-J2-PDC, were cultured in Matrigel-coated flasks prepared with a working solution of 1X Ham's F-12 nutrient mix, without supplementation (Thermo Fisher Scientific, cat. 11765054), 100 U/mL penicillin-streptomycin (Thermo Fisher Scientific, cat. 15140122), and 2.5% Matrigel (Corning Inc., Corning, NY, cat. 354248) for the first three passages. The two PDC lines 997537-175-T-J1-PDC and 415267-285-R-J2-PDC were cultured on uncoated flasks. The 857933-349-R-J2-PDC line was cultured in 6C/Colon 1B media containing advanced DMEM/F-12 (Thermo Fisher Scientific, cat. 12634028), 10 mM HEPES (Thermo Fisher Scientific, cat. 15630080), 1X GlutaMAX supplement (Thermo Fisher Scientific, cat. 35050061), 0.1 mg/mL primocin (InvivoGen, San Diego, CA, cat. ant-pm-2), 10% defined fetal bovine serum, heat inactivated (HyClone Laboratories Inc., Logan, UT, cat. SH30070.03HI), 50% L-WRN conditioned media (ATCC, cat. CRL-3276), 1.25 mM N-Acetyl-L-cysteine (Sigma-Aldrich, cat. A9165), 10 mM nicotinamide (Sigma-Aldrich, cat. N0636), 1X B-27 supplement (Thermo Fisher Scientific, cat. 17504044), 1X N-2 supplement (Thermo Fisher Scientific, cat. […]
# [1] = curve of first compound, second compound 0.0316 µM
# [2] = curve of first compound, second compound 0.1 µM
# [3] = curve of first compound, second compound 0.316 µM
# [4] = curve of first compound, second compound 1 µM
# [5] = curve of first compound, second compound 3.16 µM
# [6] = curve of first compound, second compound 10 µM
# [7] = second compound 0.0316 µM, first compound 0.0316 µM
# [8] = second compound 0.0316 µM, first compound 0.1 µM
# [9] = second compound 0.0316 µM, first compound 0.316 µM
# [10] = second compound 0.0316 µM, first compound 1 µM
# [11] = second compound 0.1 µM, first compound 0.0316 µM
# [12] = second compound 0.1 µM, first compound 0.1 µM
# [13] = second compound 0.1 µM, first compound 0.316 µM
# [14] = second compound 0.1 µM, first compound 1 µM
# [15] = second compound 0.316 µM, first compound 0.0316 µM
# [16] = second compound 0.316 µM, first compound 0.1 µM
# [17] = second compound 0.316 µM, first compound 0.316 µM
# [18] = second compound 0.316 µM, first compound 1 µM
# [19] = second compound 1 µM, first compound 0.0316 µM
# [20] = second compound 1 µM, first compound 0.1 µM
# [21] = second compound 1 µM, first compound 0.316 µM
# [22] = second compound 1 µM, first compound 1 µM
# [23] = second compound 3.16 µM, first compound 0.0316 µM
# [24] = second compound 3.16 µM, first compound 0.1 µM
# [25] = second compound 3.16 µM, first compound 0.316 µM
# [26] = second compound 3.16 µM, first compound 1 µM
# [27] = second compound 10 µM, first compound 0.0316 µM
# [28] = second compound 10 µM, first compound 0.1 µM
# [29] = second compound 10 µM, first compound 0.316 µM
# [30] = second compound 10 µM, first compound 1 µM
# [31] = second compound 0.0316 µM, first compound 0.00316 µM
# [32] = second compound 0.0316 µM, first compound 0.01 µM
# [33] = second compound 0.1 µM, first compound 0.00316 µM
# [34] = second compound 0.1 µM, first compound 0.01 µM
# [35] = second compound 0.316 µM, first compound 0.00316 µM
# [36] = second compound 0.316 µM, first compound 0.01 µM
# [37] = second compound 1 µM, first compound 0.00316 µM
# [38] = second compound 1 µM, first compound 0.01 µM
# [39] = second compound 3.16 µM, first compound 0.00316 µM
# [40] = second compound 3.16 µM, first compound 0.01 µM
# [41] = second compound 10 µM, first compound 0.00316 µM
# [42] = second compound 10 µM, first compound 0.01 µM
# 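Further: spheroids exposed to compounds for seven days before readout.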
# 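Wherever viability, T/C is given: 100% = DMSO vehicle control viability.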
compound,measurement,setting,value
COc1cc(C2c3cc4c(cc3C(OC3OC5COC(C)OC5C(O)C3O)C3COC(=O)C23)OCO4)cc(OC)c1O (stereo not drawn) + Cc1cccc(N(C)C(=O)C2C(O)CCN2c2nc(C)cc(C(F)(F)F)c2C#N)c1,IC50,[1],> 10000 nM
same,IC50,[2],> 10000 nM
same,IC50,[3],> 10000 nM
same,IC50,[4],> 10000 nM
same,IC50,[5],> 10000 nM
same,IC50,[6],> 10000 nM
same,"viability, T/C",[7],90.7%
same,"viability, T/C",[8],99.6%
same,"viability, T/C",[9],95.6%
same,"viability, T/C",[10],95.3%
same,"viability, T/C","second compound 0.0316 µM, first compound 3.16 µM",76.8%
same,"viability, T/C","second compound 0.0316 µM, first compound 10 µM",68.8%
same,"viability, T/C",[11],103%
same,"viability, T/C",[12],101%
same,"viability, T/C",[13],98.1%
same,"viability, T/C",[14],89.8%
same,"viability, T/C","second compound 0.1 µM, first compound 3.16 µM",83.4%
same,"viability, T/C","second compound 0.1 µM, first compound 10 µM",79.1%
same,"viability, T/C",[15],96.9%
same,"viability, T/C",[16],92.4%
same,"viability, T/C",[17],95.2%
same,"viability, T/C",[18],88.2%
same,"viability, T/C","second compound 0.316 µM, first compound 3.16 µM",82.1%
same,"viability, T/C","second compound 0.316 µM, first compound 10 µM",69.1%
same,"viability, T/C",[19],108%
same,"viability, T/C",[20],90.8%
same,"viability, T/C",[21],93.5%
same,"viability, T/C",[22],90.4%
same,"viability, T/C","second compound 1 µM, first compound 3.16 µM",84.2%
same,"viability, T/C","second compound 1 µM, first compound 10 µM",73.4%
same,"viability, T/C",[23],90.9%
same,"viability, T/C",[24],102%
same,"viability, T/C",[25],90.8%
same,"viability, T/C",[26],83.3%
same,"viability, T/C","second compound 3.16 µM, first compound 3.16 µM",82.1%
same,"viability, T/C","second compound 3.16 µM, first compound 10 µM",70.6%
same,"viability, T/C",[27],92.4%
same,"viability, T/C",[28],82.5%
same,"viability, T/C",[29],95.4%
same,"viability, T/C",[30],86.8%
same,"viability, T/C","second compound 10 µM, first compound 3.16 µM",71%
same,"viability, T/C","second compound 10 µM, first compound 10 µM",59.9%
CC1COCCN1c1cc(C2(O)CC3CCC(C2)O3)c2cnn(-c3ccn[nH]3)c2n1 (stereo not drawn),"viability, T/C",compound 0.0316 µM,92.2% and 97.5% and 97.8%
same,"viability, T/C",compound 0.1 µM,82.7% and 81.3% and 85.3%
same,"viability, T/C",compound 0.316 µM,70.9% and 70.1% and 75.3%
same,"viability, T/C",compound 1 µM,61.7% and 59.7% and 72.1%
same,"viability, T/C",compound 3.16 µM,47.5% and 49% and 59.7%
same,"viability, T/C",compound 10 µM,46.5% and 47% and 53.5%
same,IC50,curve of compound,3480 nM and 4100 nM and > 10000 nM
COc1cccc(OCCCN)c1-c1cc(Nc2cnc(C#N)cn2)n[nH]1 + COC1C(OC(N)=O)C(O)C(Oc2ccc3c(O)c(NC(=O)c4ccc(O)c(CC=C(C)C)c4)c(=O)oc3c2C)OC1(C)C,IC50,[1],142 nM
same,IC50,[2],158 nM
same,IC50,[3],145 nM
same,IC50,[4],109 nM
same,IC50,[5],133 nM
same,IC50,[6],128 nM
same,"viability, T/C",[31],87%
same,"viability, T/C",[32],88.1%
same,"viability, T/C",[7],70.1%
same,"viability, T/C",[8],61.4%
same,"viability, T/C",[9],31.3%
same,"viability, T/C",[10],17.4%
same,"viability, T/C",[33],98.5%
same,"viability, T/C",[34],82%
same,"viability, T/C",[11],76.4%
same,"viability, T/C",[12],65.3%
same,"viability, T/C",[13],30.9%
same,"viability, T/C",[14],18.3%
same,"viability, T/C",[35],94.6%
same,"viability, T/C",[36],90.3%
same,"viability, T/C",[15],72.3%
same,"viability, T/C",[16],62%
same,"viability, T/C",[17],31.7%
same,"viability, T/C",[18],19.1%
same,"viability, T/C",[37],105%
same,"viability, T/C",[38],82.1%
same,"viability, T/C",[19],72.6%
same,"viability, T/C",[20],52.9%
same,"viability, T/C",[21],31.8%
same,"viability, T/C",[22],16.4%
same,"viability, T/C",[39],102%
same,"viability, T/C",[40],85.6%
same,"viability, T/C",[23],73.6%
same,"viability, T/C",[24],59.1%
same,"viability, T/C",[25],30.9%
same,"viability, T/C",[26],18.2%
same,"viability, T/C",[41],103%
same,"viability, T/C",[42],86.8%
same,"viability, T/C",[27],77%
same,"viability, T/C",[28],56.4%
same,"viability, T/C",[29],30.5%
same,"viability, T/C",[30],17.5%
COc1cccc(OCCCN)c1-c1cc(Nc2cnc(C#N)cn2)n[nH]1 + Nc1ccc(C#CCN(C(=O)Cc2ncc(C(F)(F)F)cc2C(F)(F)F)c2ccc(F)cc2)nn1,IC50,[1],336 nM
same,IC50,[2],293 nM
same,IC50,[3],320 nM
same,IC50,[4],290 nM
same,IC50,[5],223 nM
same,IC50,[6],70.2 nM
same,"viability, T/C",[31],105%
same,"viability, T/C",[32],95.1%
same,"viability, T/C",[7],82.2%
same,"viability, T/C",[8],68.4%
same,"viability, T/C",[9],58.2%
same,"viability, T/C",[10],23.1%
same,"viability, T/C",[33],104%
same,"viability, T/C",[34],99.3%
same,"viability, T/C",[11],79.9%
same,"viability, T/C",[12],66.7%
same,"viability, T/C",[13],53%
same,"viability, T/C",[14],22.8%
same,"viability, T/C",[35],101%
same,"viability, T/C",[36],97.6%
same,"viability, T/C",[15],85.4%
same,"viability, T/C",[16],69%
same,"viability, T/C",[17],51.6%
same,"viability, T/C",[18],24.8%
same,"viability, T/C",[37],106%
same,"viability, T/C",[38],105%
same,"viability, T/C",[19],76.8%
same,"viability, T/C",[20],70.6%
same,"viability, T/C",[21],50.6%
same,"viability, T/C",[22],22.4%
same,"viability, T/C",[39],106%
same,"viability, T/C",[40],95.6%
same,"viability, T/C",[23],83.2%
same,"viability, T/C",[24],67.7%
same,"viability, T/C",[25],41.6%
same,"viability, T/C",[26],20.4%
same,"viability, T/C",[41],107%
same,"viability, T/C",[42],96%
same,"viability, T/C",[27],69.3%
same,"viability, T/C",[28],42.4%
same,"viability, T/C",[29],23.8%
same,"viability, T/C",[30],20.7%
